Laboratory results as given in publication PMC12251544 (2025).

Test system: FAM-SpA1-1/SpA1-2 (T-2 toxin split aptamer) (DNA, aptamer) CAGCTCAGAAGCTTGATCCTG/TATATCAAGCATAGAGGTG
Settings: 5 mM K+, 100 mM Na+, 1 mM Mg2+; 50 mM Tris-HCl, 1% methanol, pH 7.4, room temperature; sensor selectivity; concentration tested not stated

Structure (SMILES) | binding
CCCC[C@@H](C)[C@@H](OC(=O)C[C@@H](CC(=O)O)C(=O)O)[C@H](C[C@@H](C)C[C@H](O)CCCC[C@@H](O)C[C@H](O)[C@H](C)N)OC(=O)C[C@@H](CC(=O)O)C(=O)O | no
C[C@@H]1Cc2c(Cl)cc(C(=O)N[C@@H](Cc3ccccc3)C(=O)O)c(O)c2C(=O)O1 | no
C[C@H]1CCCC(=O)CCC/C=C/c2cc(O)cc(O)c2C(=O)O1 | no
